Reference: US9469836B2, “Antifungal metabolites from fungal endophytes of Pinus strobus” (J.D. IRVING, LIMITED, priority 2011, dated 2016)

Assays:
Type in all cases: cell-based
[1] = system: Saccharomyces cerevisae; assay: Disc diffusion (Oxford) antifungal assay, yeast; details: isolated compounds
Protocol: (§1) The term “toxicity” as used herein with respect to the effect of a toxin compound or toxigenic endophyte strain on a pest means inhibited or reduced growth and/or pest death in the presence of the toxin compound or toxigenic endophyte compared to a control. For example, where toxicity is assessed using a disc diffusion assay, which uses a disc comprising a compound, which is placed on a microbial lawn, the compound is a toxic compound if it results in a zone of clearing around the disc.
(§2) From these strains the new aliphatic polyketide compound 1 and three related sesquiterpenes (IIa), (IIb) and (III) were isolated and characterized (see FIG. 1). Compound (III) is reported for the first time as a natural product and the E/Z conformational isomers (IIa) and (IIb) are reported as new structures (see FIG. 1). Additionally, the three known macrolides; pyrenophorol (IV), dihydropyrenophorin (V) and pyrenophorin (VI) were isolated and identified. Their structures were elucidated by spectroscopic analyses including 2D NMR, HRMS and by comparison to literature data where available.
(§3) The results of the Oxford disc assay using the isolated compounds confirmed these observations for both S. cerevisae and Microbotryum violaceum. A quantitative test protocol based on cell density using OD measurements at 600 nm in 96 well microplates was employed.
(§4) Disc diffusion assays with the extracts were employed for preliminary antifungal testing using Saccharomyces cerevisae for all strains (Sumarah et al., 2008b). […] The individual compounds were further tested using these two fungi in 96 well microplates where 10 μL of 1 mg/mL (˜4 μM) of each compound in DMSO was added to 200 μL of the above macerated cultures. The plates were incubated at room temperature with constant shaking and were measured at 600 nm. The antifungal compound nystatin was used as the positive control for all experiments.

[2] = system: Microbotryum violaceum; assay: Disc diffusion (Oxford) antifungal assay, rust; details: isolated compounds, rust grown on MYP
Protocol: as §1, §2, §3, §4

[3] = system: Saccharomyces cerevisae; assay: Quantitative cell density test, OD 600 nm, 96 well microplates, yeast; details: for reduction in cell density vs controls (OD 600 nm): S. cerevisae, 24 hours, 10 μL of 1 mg/mL (˜4 μM) compound in DMSO added to 200 μL culture, ANOVA p<0.000
Excerpt: as §3, §4

[4] = system: Microbotryum violaceum; assay: Quantitative cell density test, OD 600 nm, 96 well microplates, rust; details: M. violaceum, 48 hours; 10 μL of 1 mg/mL (˜4 μM) compound in DMSO added to 200 μL culture; ANOVA p<0.000
Excerpt: as §3, §4

| SMILES | antifungal activity against Saccharomyces cerevisae [1] | antifungal activity against Microbotryum violaceum [2] | antifungal activity against Microbotryum violaceum ([2]; listed as 5) | reduction in cell density vs controls (OD 600 nm) [3] | reduction in cell density vs controls (OD 600 nm) [4] | antifungal activity against Microbotryum violaceum ([2]; listed as 2) | rank of antifungal effect among compounds 1, (III) and (IV) ([3]; based on results of the response at 24 h) | antifungal activity against Microbotryum violaceum ([2]; listed as (2E,4Z)-methyl-6-acetoxy-5-acetyl-7-oxohepta-2,4-dienoate) |
| --- | --- | --- | --- | --- | --- | --- | --- | --- |
| C[C@@H]1CC[C@H](O)/C=C/C(=O)O[C@H](C)CC[C@H](O)/C=C/C(=O)O1 [Compound (IV), pyrenophorol] | antifungal activity | antifungal activity | antifungal activity | Statistically-significant reductions in cell density | Statistically-significant reductions in cell density |  |  |  |
| CC1(C)CCCC(C)(c2ccc(CO)cc2O)O1 (stereo not shown) [Compound (III), 5-(hydroxymethyl)-2-(2′,6′,6′-trimethyltetrahydro-2H-pyran-2-yl)phenol] | antifungal activity | antifungal activity |  | Statistically-significant reductions in cell density | Statistically-significant reductions in cell density | antifungal activity | most antifungal |  |
| COC(=O)/C=C\C=C(\C=O)C(OC(C)=O)C(C)=O (stereo not shown) [Compound 1, (2Z,4E)-methyl-6-acetoxy-5-formyl-7-oxo-octa-2,4-dienoate] | antifungal activity | antifungal activity |  | Statistically-significant reductions in cell density | Statistically-significant reductions in cell density |  |  | antifungal activity |
